In brackets after ≈: the same amount, converted by molar mass. Where two headings read alike, the source gives them in different places.
What was measured:
Type in all cases: cell-based
[1] = system: Pr. rettgeri GN624; assay: MIC against Pr. rettgeri GN624; conditions: Providencia rettgeri
Description: (§1) The compounds (I) of this invention are clearly different from various cephem derivatives described in Japanese Patent Pre-publication ("Kokai") No. 25551/78 and U.S. Pat. No. 4,226,866 in respect of the presence of a lower alkyl group at 2-position of the cephem nucleus. […] Minimum inhibitory concentrations (M.I.C.) (μg/ml) of the compounds (I) to various bacteria are set out in Table 1 below.

[2] = system: S. typhimurium LT-2; assay: MIC against S. typhimurium LT-2; conditions: Salmonella enterica
Description: as §1

[3] = system: C. freundii CN346; assay: MIC against C. freundii CN346; conditions: Citrobacter freundii
Description: as §1

[4] = system: Staph. aureus Smith; assay: MIC against Staph. aureus Smith; conditions: Staphylococcus aureus
Description: as §1

[5] = system: Ser. marcescens No. 2; assay: MIC against Ser. marcescens No. 2; conditions: Serratia marcescens
Description: as §1

[6] = system: Pr. vulgaris GN76; assay: MIC against Pr. vulgaris GN76; conditions: Proteus vulgaris
Description: as §1

[7] = system: Staph. aureus 209P JC-1; assay: MIC against Staph. aureus 209P JC-1; conditions: Staphylococcus aureus
Description: as §1

[8] = system: Pr. mirabilis GN79; assay: MIC against Pr. mirabilis GN79; conditions: Proteus mirabilis
Description: as §1

[9] = system: Ps. aeruginosa; assay: MIC against Ps. aeruginosa; conditions: Pseudomonas aeruginosa
Description: as §1

[10] = system: Ent. cloacae G-0006; assay: MIC against Ent. cloacae G-0006; conditions: Enterobacter cloacae, G0006
Description: as §1

[11] = system: Kl. pneumoniae PCI 602; assay: MIC against Kl. pneumoniae PCI 602; conditions: Klebsiella pneumoniae, PCI602
Description: as §1

[12] = S. typhimurium LT-2, read-out: MIC
[13] = C. freundii CN346, read-out: MIC
[14] = Pr. vulgaris GN76, read-out: MIC
[15] = Ser. marcescens No. 2, read-out: MIC

`CO[C@@]1(NC(=O)Cc2cccs2)C(=O)N2C(C(=O)O)=C(CSc3nnnn3C)[C@H](C)O[C@@H]21` [compound 4, 7β-(2-Thienylacetamido)-7α-methoxy-2β-methyl-3-(1-methyl-1H--tetrazole-5-yl)thiomethyl-1-oxa-1-dethia-3-cephem-4-carboxylic acid] gave an MIC [1] of 25 µg/mL (≈ 52 µM), an MIC [2, 12] of 0.05 µg/mL (≈ 0.104 µM) and an MIC [3, 13] of 100 µg/mL (≈ 208 µM). It also gave an MIC [4] of 0.2 µg/mL (≈ 0.416 µM), an MIC ([5]; NO.2) of 1.56 µg/mL (≈ 3.25 µM) and an MIC [6, 14] of 0.39 µg/mL (≈ 0.812 µM). For the same molecule, the MIC [7] was 0.2 µg/mL (≈ 0.416 µM), the MIC [8] was 12.5 µg/mL (≈ 26 µM) and the MIC [9] was greater than 100 µg/mL. It also gave an MIC [10] of 100 µg/mL (≈ 208 µM) and an MIC [11] of 1.56 µg/mL (≈ 3.25 µM).

Molecule `C[C@@H]1O[C@@H]2[C@H](NC(=O)Cc3cccs3)C(=O)N2C(C(=O)O)=C1CSc1nnnn1C` [compound 2, 7-(2-Thienylacetamido)-2β-methyl-3-(1-methyl-1H--tetrazole-5-yl)thiomethyl-1-oxa-1-dethia-3-cephem-4-carboxylic acid] has an MIC [1] of 12.5 µg/mL (≈ 27.7 µM), an MIC [2, 12] of 0.1 µg/mL (≈ 0.222 µM) and an MIC [3, 13] of 100 µg/mL (≈ 222 µM). The MIC [4] was 0.05 µg/mL (≈ 0.111 µM), the MIC [5, 15] was 6.25 µg/mL (≈ 13.9 µM) and the MIC ([6]; GN76) was 1.56 µg/mL (≈ 3.46 µM). For the same molecule, the MIC [7] was 0.025 µg/mL (≈ 0.0555 µM), the MIC [8] was 12.5 µg/mL (≈ 27.7 µM) and the MIC [9] was greater than 100 µg/mL. For the same molecule, the MIC [10] was 100 µg/mL (≈ 222 µM) and the MIC [11] was 1.56 µg/mL (≈ 3.46 µM).

`CO[C@@]1(NC(=O)C(C(=O)O)c2cccs2)C(=O)N2C(C(=O)O)=C(CSc3nnnn3C)[C@@H](C)O[C@@H]21` (stereo partly drawn) [compound 5, 7β-[2-(2-Thienyl)-2-carboxyacetamido]-7α-methoxy-2α-methyl-3-(1-methyl-1H--tetrazole-5-yl)thiomethyl-1-oxa-1-dethia-3-cephem-4-carboxylic acid] was tested, and the MIC [1] was 3.13 µg/mL (≈ 5.97 µM), the MIC [2, 12] was 0.1 µg/mL (≈ 0.191 µM) and the MIC [3, 13] was 25 µg/mL (≈ 47.7 µM). For the same molecule, the MIC [4] was 0.78 µg/mL (≈ 1.49 µM), the MIC [5, 15] was 0.78 µg/mL (≈ 1.49 µM) and the MIC [6, 14] was 0.39 µg/mL (≈ 0.744 µM). The MIC [7] was 0.78 µg/mL (≈ 1.49 µM), the MIC [8] was 0.78 µg/mL (≈ 1.49 µM) and the MIC [9] was 100 µg/mL (≈ 191 µM). It also gave an MIC [10] of 100 µg/mL (≈ 191 µM) and an MIC [11] of 1.56 µg/mL (≈ 2.97 µM).

`CO[C@@]1(NC(=O)C(C(=O)O)c2cccs2)C(=O)N2C(C(=O)O)=C(CSc3nnnn3C)[C@H](C)O[C@@H]21` (stereo partly drawn) [compound 6, 7β-[2-(2-Thienyl)-2-carboxyacetamido]-7α-methoxy-2β-methyl-3-(1-methyl-1H--tetrazole-5-yl)thiomethyl-1-oxa-1-dethia-3-cephem-4-carboxylic acid] showed an MIC [1] of no more than 0.025 µg/mL, an MIC [2, 12] of no more than 0.025 µg/mL and an MIC ([3]; CN346) of 1.56 µg/mL (≈ 2.97 µM). For the same molecule, the MIC [4] was 0.78 µg/mL (≈ 1.49 µM), the MIC [5, 15] was 0.2 µg/mL (≈ 0.381 µM) and the MIC [6, 14] was 0.1 µg/mL (≈ 0.191 µM). The MIC [7] was 0.39 µg/mL (≈ 0.744 µM), the MIC [8] was 0.1 µg/mL (≈ 0.191 µM) and the MIC [9] was 25 µg/mL (≈ 47.7 µM). It also gave an MIC [10] of 6.25 µg/mL (≈ 11.9 µM) and an MIC [11] of 1.56 µg/mL (≈ 2.97 µM).

Molecule `CO[C@@]1(NC(=O)Cc2cccs2)C(=O)N2C(C(=O)O)=C(CSc3nnnn3C)[C@@H](C)O[C@@H]21` [compound 3, 7β-(2-Thienylacetamido)-7α-methoxy-2α-methyl-3-(1-methyl-1H--tetrazole-5-yl)thiomethyl-1-oxa-1-dethia-3-cephem-4-carboxylic acid] has an MIC [1] greater than 100 µg/mL, an MIC ([2]; TYPHIMURIUM) of 1.56 µg/mL (≈ 3.25 µM) and an MIC [3, 13] greater than 100 µg/mL. The MIC [4] was 0.39 µg/mL (≈ 0.812 µM), the MIC [5, 15] was 12.5 µg/mL (≈ 26 µM) and the MIC [6, 14] was 12.5 µg/mL (≈ 26 µM). For the same molecule, the MIC [7] was 0.39 µg/mL (≈ 0.812 µM), the MIC [8] was greater than 100 µg/mL and the MIC [9] was greater than 100 µg/mL. The MIC [10] was greater than 100 µg/mL and the MIC [11] was 25 µg/mL (≈ 52 µM).

With `C[C@H]1O[C@@H]2[C@H](NC(=O)Cc3cccs3)C(=O)N2C(C(=O)O)=C1CSc1nnnn1C` [compound 1, 7-(2-Thienylacetamido)-2α-methyl-3-(1-methyl-1H--tetrazole-5-yl)thiomethyl-1-oxa-1-dethia-3-cephem-4-carboxylic acid] the MIC [1] was 0.05 µg/mL (≈ 0.111 µM), the MIC [2, 12] was 0.025 µg/mL (≈ 0.0555 µM) and the MIC [3, 13] was 3.13 µg/mL (≈ 6.95 µM). The MIC [4] was 0.2 µg/mL (≈ 0.444 µM), the MIC [5, 15] was 0.1 µg/mL (≈ 0.222 µM) and the MIC [6, 14] was 0.1 µg/mL (≈ 0.222 µM). The MIC [7] was 0.2 µg/mL (≈ 0.444 µM), the MIC [8] was 0.1 µg/mL (≈ 0.222 µM) and the MIC [9] was 12.5 µg/mL (≈ 27.7 µM). For the same molecule, the MIC [10] was 25 µg/mL (≈ 55.5 µM) and the MIC [11] was 0.1 µg/mL (≈ 0.222 µM).

`CO[C@@]1(NC(=O)C(C(=O)O)c2ccsc2)C(=O)N2C(C(=O)O)=C(CSc3nnnn3C)[C@H](C)O[C@@H]21` (stereo partly drawn) [compound 7, 7β-[2-(3-Thienyl)-2-carboxyacetamido]-7α-methoxy-2β-methyl-3-(1-methyl-1H--tetrazole-5-yl)thiomethyl-1-oxa-1-dethia-3-cephem-4-carboxylic acid] was tested, and the MIC [1] was 0.05 µg/mL (≈ 0.0953 µM), the MIC [2, 12] was no more than 0.025 µg/mL and the MIC [3, 13] was 1.56 µg/mL (≈ 2.97 µM). It also gave an MIC [4] of 1.56 µg/mL (≈ 2.97 µM), an MIC [5, 15] of 0.2 µg/mL (≈ 0.381 µM) and an MIC [6, 14] of 0.1 µg/mL (≈ 0.191 µM). It also gave an MIC [7] of 1.56 µg/mL (≈ 2.97 µM), an MIC [8] of 0.2 µg/mL (≈ 0.381 µM) and an MIC [9] of 25 µg/mL (≈ 47.7 µM). It also gave an MIC [10] of 3.13 µg/mL (≈ 5.97 µM) and an MIC [11] of 0.05 µg/mL (≈ 0.0953 µM).

Reference: patent publication US4534898A, “1-Oxa-1-dethia-cephalosporin derivatives” (Merck & Co., Inc., priority 1982, dated 1985)
